Reference: patent US20120095215A1, “MEDICAL COMPOSITION FOR TREATMENT OR PROPHYLAXIS OF EYE DISEASES” (UBE INDUSTRIES, LTD., priority 2009, published 2012)
Counter-ions that a name gives are not always drawn.

Tests used:
αvβ3 protein = target: T1, αvβ3 protein (Homo sapiens, UniProt P05106+P06756); assay: αvβ3 protein binding test (fluorescence polarization, FITC-Echistatin); settings: inhibition of binding of Echistatin and αvβ3 protein, 37° C., 30 minutes
T1 construct: purchased CHEMICON CORP; CC1019
T1 sequence (P06756 31-889 limits assumed): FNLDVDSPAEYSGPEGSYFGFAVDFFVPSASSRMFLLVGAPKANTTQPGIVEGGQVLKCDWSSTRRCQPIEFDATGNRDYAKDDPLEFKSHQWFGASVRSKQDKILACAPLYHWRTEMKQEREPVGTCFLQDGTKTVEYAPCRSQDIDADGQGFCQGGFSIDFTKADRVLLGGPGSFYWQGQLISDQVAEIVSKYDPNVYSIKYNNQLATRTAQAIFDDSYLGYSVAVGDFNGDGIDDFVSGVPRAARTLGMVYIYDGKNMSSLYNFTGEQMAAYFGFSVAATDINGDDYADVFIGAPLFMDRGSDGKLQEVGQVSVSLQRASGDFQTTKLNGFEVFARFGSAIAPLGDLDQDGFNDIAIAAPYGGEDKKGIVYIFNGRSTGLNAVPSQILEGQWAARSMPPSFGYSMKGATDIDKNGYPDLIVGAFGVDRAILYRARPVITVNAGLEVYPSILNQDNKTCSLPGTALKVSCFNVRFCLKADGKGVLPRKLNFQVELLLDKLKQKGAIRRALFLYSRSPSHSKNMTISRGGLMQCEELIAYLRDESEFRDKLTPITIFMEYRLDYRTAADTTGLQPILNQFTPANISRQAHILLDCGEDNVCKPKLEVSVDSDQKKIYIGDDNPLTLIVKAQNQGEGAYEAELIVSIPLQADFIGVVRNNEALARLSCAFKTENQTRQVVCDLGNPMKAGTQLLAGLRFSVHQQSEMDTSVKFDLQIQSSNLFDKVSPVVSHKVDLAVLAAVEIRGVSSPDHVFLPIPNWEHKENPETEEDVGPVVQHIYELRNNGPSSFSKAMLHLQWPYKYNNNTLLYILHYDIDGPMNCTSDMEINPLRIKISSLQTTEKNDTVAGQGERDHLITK
T1 sequence (P06756 891-1048 partner limits assumed): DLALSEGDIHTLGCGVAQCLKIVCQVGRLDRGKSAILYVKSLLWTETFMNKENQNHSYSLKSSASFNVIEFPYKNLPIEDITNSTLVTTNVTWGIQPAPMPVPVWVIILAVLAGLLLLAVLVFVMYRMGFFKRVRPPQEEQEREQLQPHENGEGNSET
T1 sequence (P05106 27-788): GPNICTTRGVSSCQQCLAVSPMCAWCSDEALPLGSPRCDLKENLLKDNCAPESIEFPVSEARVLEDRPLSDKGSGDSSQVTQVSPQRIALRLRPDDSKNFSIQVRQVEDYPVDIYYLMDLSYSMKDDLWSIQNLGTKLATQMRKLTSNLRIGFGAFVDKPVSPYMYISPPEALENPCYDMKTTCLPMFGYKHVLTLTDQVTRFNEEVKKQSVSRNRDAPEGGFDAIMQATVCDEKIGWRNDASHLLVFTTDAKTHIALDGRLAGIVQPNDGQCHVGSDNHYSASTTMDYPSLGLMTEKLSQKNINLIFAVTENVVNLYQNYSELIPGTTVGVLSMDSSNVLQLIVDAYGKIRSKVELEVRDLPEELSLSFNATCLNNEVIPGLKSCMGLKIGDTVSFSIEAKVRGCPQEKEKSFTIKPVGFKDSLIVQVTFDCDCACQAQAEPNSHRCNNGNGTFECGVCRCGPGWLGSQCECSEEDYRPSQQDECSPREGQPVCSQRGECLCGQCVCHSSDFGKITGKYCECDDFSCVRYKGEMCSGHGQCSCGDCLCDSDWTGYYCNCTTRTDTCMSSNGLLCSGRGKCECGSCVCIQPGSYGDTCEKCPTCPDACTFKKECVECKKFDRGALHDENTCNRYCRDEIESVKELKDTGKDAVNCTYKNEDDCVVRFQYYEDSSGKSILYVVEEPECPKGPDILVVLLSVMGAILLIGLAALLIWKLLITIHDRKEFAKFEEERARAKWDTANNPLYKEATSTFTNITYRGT
Experimental: The method of Davis et al. (Proc. Natl. Acad. Sci., 96(16), 9269 (1999)) was partially modified and carried out.
By using Echistatin (available from SIGMA), Fluorescein Amine Labeling Kit for Peptides and Proteins (available from PanVera Corp., P2058) and Gel Filtration of Proteins Kit (P2101, PanVera Corp.), fluorescein isothiocyanate (hereinafter abbreviated to as FITC)-Echistatin was prepared. Then, with 137 μL of Tris-buffer (10 mM Tris base, 1 mM CaCl2, 1 mM MgCl2, 1 mM MnCl2, pH 7.4) were mixed 1 μL of 200 nM FITC-Echistatin (final concentration: 1 nM) and 2 μL of […] bovine serum albumin (hereinafter abbreviated to as BSA; available from SIGMA) (final concentration: 1 mg/mL). To the mixture was added 10 μL of the test compound, then, 50 μL of 4 nM αvβ3 (CC1019, available from CHEMICON CORP.) (final concentration: 1 nM) was added to the mixture and the resulting mixture was incubated at 37° C. for 30 minutes. By measuring fluorescence polarization degrees with BEACON2000 (available from PanVera Corp.), binding of Echistatin and αvβ3 protein was evaluated. The concentration (IC50 value) of the test compound necessary for inhibiting 50% of binding of Echistatin and αvβ3 protein was calculated by using EXSAS (available from Arm Systecs Co. Ltd.).

[1] = system: HUVEC (human umbilical vein endothelial cell), αvβ3 expressing cell; assay: αvβ3 expressing cell adhesion test (HUVEC on human vitronectin); assay type: cell-based; settings: HUVEC binding to human vitronectin, 50% human serum-containing DMEM, 1 hour; read-out: αvβ3 developed cell adhesion inhibition IC50 value
Experimental: The method of Juliano, et al. (Exp. Cell Res., 225(1), 132 (1996)) was partially modified and carried out.
Human vitronectin (available from CHEMICON CORP.) was adjusted to 10 μg/mL with phosphate buffered saline (hereinafter abbreviated to as PBS). This was apportioned on a 96-well plate (MS9586F, available from SUMIRON Co., Ltd.) with 100 μL/well, subjected to coating at room temperature for 1 hour, then, the coating solution was removed and dried. Thereafter, blocking treatment was carried out by 1.0% BSA dissolved in Dulbecco's Modified Eagle's Medium (hereinafter abbreviated to as DMEM) for 1 hour, followed by washing with PBS, and the obtained material was used for the adhesion test as a coating plate. HUVEC (human umbilical vein endothelial cell) (available from Clonetics Corp.) cultured in an endocerial cell basal medium EBM2 (available from Clonetics Corp.) containing growth factor EGM2 (available from Clonetics Corp.) and 10% fatal bovin serum (hereinafter abbreviated to as FBS) was peeled by using trypsin-ethylenediamine tetraacetic acid, washed by using PBS and recovered, and then, suspended in 50% human serum-containing DMEM to prepare a cell solution of HUVEC. To human vitronectin coating plates was added a 50% human serum-containing DMEM solution containing the HUVEC cell solution and the test compound each 50 μL/plate to start the adhesion test. […]

αvβ5 protein = target: T2, αvβ5 protein (Homo sapiens, UniProt P06756+P18084); assay: αvβ5 protein binding test (Biotin-Echistatin plate assay); settings: inhibition of binding between Echistatin and αvβ5 protein
T2 construct: purchased CHEMICON Corp. CC1023
T2 sequence (P06756 31-889 limits assumed): as the sequence (P06756 31-889 limits assumed) above
T2 sequence (P06756 891-1048 partner limits assumed): as the sequence (P06756 891-1048 partner limits assumed) above
T2 sequence (P18084 24-799): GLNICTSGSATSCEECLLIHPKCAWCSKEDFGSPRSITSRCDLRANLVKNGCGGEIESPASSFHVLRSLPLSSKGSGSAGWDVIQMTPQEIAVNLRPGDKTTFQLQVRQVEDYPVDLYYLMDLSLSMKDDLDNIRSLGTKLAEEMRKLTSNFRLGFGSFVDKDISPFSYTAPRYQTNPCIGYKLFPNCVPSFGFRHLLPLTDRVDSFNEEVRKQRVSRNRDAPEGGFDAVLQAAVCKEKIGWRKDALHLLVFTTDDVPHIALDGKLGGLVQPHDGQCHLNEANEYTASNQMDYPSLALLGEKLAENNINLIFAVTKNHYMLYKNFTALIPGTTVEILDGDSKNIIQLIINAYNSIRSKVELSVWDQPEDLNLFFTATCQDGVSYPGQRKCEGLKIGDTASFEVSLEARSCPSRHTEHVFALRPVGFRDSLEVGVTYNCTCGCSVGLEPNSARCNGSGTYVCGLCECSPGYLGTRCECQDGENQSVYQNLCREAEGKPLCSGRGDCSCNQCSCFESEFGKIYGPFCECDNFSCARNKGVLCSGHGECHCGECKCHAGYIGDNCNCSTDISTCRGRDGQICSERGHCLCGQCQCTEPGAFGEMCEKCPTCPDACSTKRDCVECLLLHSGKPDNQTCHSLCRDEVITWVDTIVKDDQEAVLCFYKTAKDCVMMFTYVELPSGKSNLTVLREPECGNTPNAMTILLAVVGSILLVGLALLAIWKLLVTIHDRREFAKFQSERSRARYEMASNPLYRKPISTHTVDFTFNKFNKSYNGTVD
Experimental: The method of C. P. Carron et al. (J. Endocrinology, 165, 587 (2000)) was partially modified and carried out.
By using Echistatin (available from Bachem) and EZ-Link NHS-Biotin Reagent (available from Pierce Biotechnology Inc.), Biotin-Echistatin was prepared. Then, αvβ5 (CC1023, available from CHEMICON Corp.) was mixed with a Tris buffer solution (20 mM tris(hydroxymethyl)aminomethane, 150 mM NaCl, 1 mM CaCl2, 1 mM MgCl2, 1 mM MnCl2, pH 7.5), the mixture was added to Nunc immunoplate Maxisoap (available from Nalge Nunc Int. Co.), and incubated at room temperature overnight. The solution was removed, a Block Ace (available from Dai Nippon Sumitomo Pharma Co., Ltd.) solution was added to the residue and the mixture was incubated at room temperature for 2 hours, then, the solution was again removed and the residue was washed with 0.05% Tween-PBS. Next, a Tris buffer solution containing 10 mg/mL of bovine serum albumin (hereinafter abbreviated to as BSA; available from SIGMA) and the test compound was added to the mixture, and the resulting mixture was incubated at room temperature for 30 minutes. […] An absorbance at 495 nm was measured by Microplate reader (Spectra Fluor, available from TECAN Group, Ltd.) to evaluate binding of Echistatin and αvβ5 protein. […]

Row | Compound | IC50 (αvβ3 protein) [nM] | IC50 [1] [nM] | IC50 (αvβ5 protein) [nM]
1 | CNc1cccc(CCOc2ccc3c(c2)CN(CC(F)(F)F)C(=O)C(CC(=O)O)C3)n1 (racemic) [Compund A, 8-[2-[6-(methylamino)pyridin-2-yl]-1-ethoxy]-3-oxo-2-(2,2,2-trifluoroethyl)-2,3,4,5-tetrahydro-1H-2-benzazepin-4-acetic acid, reference compound] | 7.1 | 161 | –
2 | O=C(O)C[C@@H]1Cc2ccc(OCCCNc3ccccn3)cc2CN(CC(F)(F)F)C1=O [Compund B, (4S)-3-oxo-8-[3-(pyridin-2-ylamino)-1-propyloxy]-2-(2,2,2-trifluoroethyl)-2,3,4,5-tetrahydro-1H-2-benzazepin-4-acetic acid, reference compound] | 2.6 | – | 1.3
3 | O=C(O)CC1Cc2ccc(OCCc3cn4c(n3)NCCC4)cc2CN(CC(F)(F)F)C1=O (stereo not drawn) [Example 2, 3-oxo-8-[2-(5,6,7,8-tetrahydroimidazo[1,2-a]pyrimidin-2-yl)ethoxy]-2-(2,2,2-trifluoroethyl)-2,3,4,5-tetrahydro-1H-2-benzazepin-4-acetate trifluoroacetate] | 1.2 | 61 | –
4 | O=C(O)CC1Cc2ccc(OCCc3cn4c(n3)NCCN4)cc2CN(CC(F)(F)F)C1=O (stereo not drawn) [Example 3, 3-Oxo-8-[2-(1,2,3,4-tetrahydroimidazo[1,2-b][1,2,4]triazin-6-yl)ethoxy]-2-(2,2,2-trifluoroethyl)-2,3,4,5-tetrahydro-1H-2-benzazepin-4-acetate trifluoroacetate] | 1.3 | – | –
5 | O=C(O)C[C@@H]1Cc2ccc(OCCc3cn4c(n3)NCCC4)cc2CN(CC(F)(F)F)C1=O [Example 4, (4S)-3-oxo-8-[2-(5,6,7,8-tetrahydroimidazo[1,2-a]pyrimidin-2-yl)ethoxy]-2-(2,2,2-trifluoroethyl)-2,3,4,5-tetrahydro-1H-2-benzazepin-4-acetic acid] | 0.6 | – | 0.2
